Test results reported in patent publication US11964984B2, “TXNIP-TRX complex inhibitors and methods of using the same” (CITY OF HOPE, priority 2020, dated 2024).

Assays:
TXNIP mRNA [1] = experiment: TXNIP mRNA expression in THP1 cells under 25 mM glucose (RT-PCR); assay type: cell-based, human; conditions: for TXNIP mRNA expression: concentration range
Procedure: FIGS. 2A-2B. FIG. 2A: C30 and C38 inhibited TXNIP mRNA expression in THP1 cells. THP1 cells were cultured under 25 mM glucose with the indicated concentrations of compounds for 72 hours. Cells were then collected for total RNA preparation. RT-PCR was performed, and data shown are the mean±SEM from triplicates. Statistical analysis was performed using one-way ANOVA, *p<0.0001. FIG. 2B: C30 and C38 inhibited TNF-α mRNA expression in THP1 cells. THP1 cells were cultured under 25 mM glucose with various concentrations of compounds as indicated for 72 hours and collected for total RNA preparation. RT-PCR was performed, and data shown are the mean±SEM from triplicates. Statistical analysis was performed using one-way ANOVA: *<0.02; **<0.0001.
FIG. 6. C38 analogues effects on TXNIP mRNA expression in THP1 cells. THP1 cells were cultured under 25 mM glucose with 2.5 uM of compounds for 72 h. Total RNA was collected. RT-PCR was performed in triplicate and data shown are the mean±SEM. Statistical analysis was performed using one-way ANOVA: *p<0.0001.
FIG. 7. C38 and analogue E2 effects on TXNIP mRNA levels in THP cells. THP1 cells were cultured under 25 mM glucose with several concentration of C38 and E2 as indicated for 72 hours. Total RNA was prepared. RT-PCR was performed in triplicate and data shown are the mean±SEM. Statistical analysis was performed for each column vs. without compound control using one-way ANOVA: *p<0.0001.
C30 and C38 inhibited TXNIP mRNA expression in THP1 cells.
Discovery of lead compound analogues. A search of chemical libraries was performed in the interest of identifying possible lead compound analogues. Analogues to C38 were identified. To determine the properties of the analogues, we treated THP1 cells with the E batch compounds for three days, prepared RNA and measured TXNIP mRNA levels.
(§1) RNA extraction and quantitative RT-PCR. RNA was extracted using the Direct-zol™ RNA MiniPrep Plus (Zymo Research). Reverse transcription of RNA samples into cDNA was performed using the GeneAmp RNA PCR Kit (Applied Biosystems), dNTP (from Roche Applied Science), Rnase inhibitor, MULV Reverse Transcriptase and Random hexamers reagent (all from Invitrogen). Diluted cDNA was quantified using real-time PCR performed with Power SYBR Green qPCR MasterMix (Applied Biosystem) and 7500 real-time PCR system (Applied Biosystems). The HPRT1 gene was used as an internal control.

TXNIP mRNA [2] = experiment: TXNIP expression in murine blood after oral dosing (RT-PCR); assay type: in vivo, C57BL/6 mice; conditions: 90 mg/kg oral gavage daily for five days, 96 hours after last dose
Procedure: FIG. 16. Compounds C30 and C38 reduce TXNIP expression in murine blood. Twelve male C57BL/6 mice were divided into three groups (vehicle, C30 and C38). They received 90 mg/kg of the indicated compounds via oral gavage daily for five days. Animals were humanely euthanized 96 hours after administration of the last drug dose. Blood samples were collected for total RNA extraction. RT-PCR was performed in triplicate and data shown are the mean±SEM. Statistical analysis was performed using one-way ANOVA: *p<0.001.
The effects of compounds C30 and C38 at single high dose of 90 mg/kg. Twelve male mice were divided into three groups: 1) Control group (4 mice), 2) compound C30 (4 mice) and 3) compound C38 (4 mice). By oral gavage, animals were given 90 mg/kg of agent daily for 5 consecutive days (vehicle: 30% Solutol in saline). Mice were weighed every day during the treatment period. They were humanely euthanized 96 hours after the last dose. Tissues including the pancreas, liver and kidneys were collected (snap frozen in liquid nitrogen) for RNA extraction. […] Those given compound C30 lost ˜5% of body weight (FIG. 15).
Expression of TXNIP in vivo in treated mice.

TNF-α mRNA = TNF-α mRNA expression in murine MIN6 pancreatic beta cells (RT-PCR); assay type: cell-based, mouse; conditions: 25 mM glucose, 72 hours
Procedure: FIGS. 4A-4B. […] MIN6 cells were cultured under 25 mM glucose with C30 and C38 at the indicated concentrations for 72 hours. Total RNA was prepared. RT-PCR was performed and data shown are the mean±SEM from triplicates. Statistical analysis was performed for each column vs. HG DMSO using one-way ANOVA: *p<0.0001. […] MIN6 cells were cultured under 25 mM glucose and treated with C30 and C38 at the indicated concentrations for 72 hours. Total RNA was prepared. RT-PCR was performed and data shown are the mean±SEM from triplicates. Statistical analysis was performed for each column vs. HG DMSO using one-way ANOVA: *p<0.0001.
To ascertain the relevance to pancreatic beta cells, we tested the effects of the lead compounds on key target gene mRNA levels in murine MIN6 pancreatic beta cells.
as §1

| SMILES | concentration at which inhibition of TXNIP mRNA is still effective (TXNIP mRNA [1]; 72 hours) [µM] | TXNIP mRNA expression (TXNIP mRNA [1]; 72 hours) | RNA expression level of TXNIP in blood (TXNIP mRNA [2]) | TNF-α mRNA expression (TNF-α mRNA) | TXNIP mRNA expression (C38 analogues screen) (TXNIP mRNA [1]; 2.5 uM compound, 72 h) |
| --- | --- | --- | --- | --- | --- |
| COc1cc(N2CC[C@@H](c3ccc4ccccc4c3)[C@H](O)C2)nc(N)n1 [Compound C30] | 0.15 | inhibit TXNIP expression in a dose-dependent manner | reduced | tended to increase TNF-α mRNA expression |  |
| c1ccc(CCNc2ncnc3c2oc2ccccc23)cc1 [Compound C38] |  | inhibit TXNIP expression in a dose-dependent manner | reduced | tended to increase TNF-α mRNA expression | strongly inhibited TXNIP mRNA expression |
